The values below come from patent US6613762B2, “Gambogic acid, analogs and derivatives as activators of caspases and inducers of apoptosis” (Cytovia, Inc., priority 1999, dated 2003).

In one series the test system is ZR-75-1 cells. Description: Inhibition of cell proliferation (GI50) and cell death (LC50), ZR-75-1. Type of series: cell-based. The conditions noted are these: ZR-75-1, 48 h; read-out: GI50 (dose for 50% inhibition of cell proliferation). The procedure: (§1) T47D, ZR-75-1, PC-3, human prostate cancer cell line DU-145, human non-small cell lung cancer cell line A-549, human small cell lung cancer cell line SHP-77, HL-60 and MRC-5 cells were grown and harvested as in Example 90. […] The samples were mixed by agitation and incubated at 37° C. for 2-4 h in a 5% CO2-95% humidity incubator. […] This determines the possible background absorbance of the test compounds. No absorbance for gambogic acid or its analogs or derivatives was found at 490 nm. After the 2-4 h incubation, the samples were read for absorbance as above (ATest).
(§2) Baseline for GI50 (dose for 50% inhibition of cell proliferation) and LC50 (dose for 50% cell death) of initial cell numbers was determined by adding an aliquot of 90 μl of cells or 90 μl of media, respectively, to wells of a 96-well microtiter plate containing 10 μl of a 10% DMSO in RPMI-1640 media solution. […] The samples were mixed by agitation and incubated at 37° C. for 2-4 h in a 5% CO2-95% humidity incubator. Absorbance was read as above, (AT=0) defining absorbance for initial cell number used as baseline in GI50 determinations and (Amin) defining absorbance for media alone used as baseline in LC50 determinations.
(§3) GI50 (dose for 50% inhibition of cell proliferation)
(§4) LC50 (dose for 50% cell death)
(§5) 50=100×[(ATest−Amin)/(AT=0−Amin)]

Series [1] deals with human non-small cell lung cancer cell line A-549. Description: Inhibition of cell proliferation (GI50) and cell death (LC50), A-549. The settings on record: A-549, 48 h; read-out: GI50 (dose for 50% inhibition of cell proliferation). The series is classed as cell-based. As to the method: as §1, §2, §3, §4, §5
A further series has as its system HL-60 cells. Description: Inhibition of cell proliferation (GI50) and cell death (LC50), HL-60. The conditions noted are these: HL-60, 48 h. Type of series: cell-based. The procedure: as §1, §2, §3, §4, §5
A further series has as its system MRC-5 cells. As to the kind of experiment: Inhibition of cell proliferation (GI50) and cell death (LC50), MRC-5. Type of series: cell-based. The conditions noted are these: MRC-5, 48 h. The procedure: as §1, §2, §3, §4, §5
Series [2] relates to caspase activity, T47D cells. As to the kind of experiment: Caspase induction and its inhibition by caspase inhibitor (Example 97), T47D. Type of series: cell-based, human. Further details: key to Inhibition of caspase activity by Inhibitor: The caspase activity detected was inhibited by the caspase inhibitor (+). The procedure: (§6) T47D, ZR-75, PC3, SHP-77 and A-549 cells were maintained and harvested as described in Example 90. Cells were added to 96-well plates as described in Example 90. The cells were treated with 10 μM gambogic acid, in the presence and in the absence of 10 μM caspase inhibitor cbz-Val-Asp-fmk (Cytovia, Inc.; WO99/18781). The plate was incubated up to 24 h at 37° C in a 5% CO2-95% humidity incubator. Caspase activity was determined by addition of a fluorogenic substrate as described in Example 90.
(§7) Gambogic acid induced caspase activity in a ratio of greater than 2.5 (+) above untreated cell levels in all the tested cancer cell lines (Table IV). The caspase activity detected was inhibited by the caspase inhibitor (+), confirming that the fluorescent signal was due to caspase activity.

Series [3] relates to caspase activity, SHP-77 cells. Description: Caspase induction and its inhibition by caspase inhibitor (Example 97), SHP-77. The series is classed as cell-based, human. Further details: key to Inhibition of caspase activity by Inhibitor: The caspase activity detected was inhibited by the caspase inhibitor (+). The procedure: as §6, §7
Another series concerns T47D breast cancer cells. As to the kind of experiment: Nuclear fragmentation in T47D breast cancer cells (Syto16 stain). The series is classed as cell-based, human. The settings on record: 10 μM, 24 h (FIG. 2B). The procedure:
T47D cells were grown and plated as described in Example 90. The cells were treated with 10 μM of gambogic acid and the plate was incubated for up to 24 h at 37° C. in a 5% CO2-95% humidity incubator. At 24 h, the cells were incubated with a live cell nucleic acid stain, Syto16 (Molecular Probes) which stains DNA. After 2 washes with PBS, cells were examined under a fluorescence microscope. […] Nuclear fragmentation is a clear indicator of cellular apoptosis.

For series [4], the system named is caspase activity, T47D cells and MRC-5 cells. Description: Dose response of caspase activation in T47D versus normal fibroblasts MRC-5. The conditions noted are these: 2 h incubation, two-fold serial dilutions (FIG. 4). The series is classed as cell-based, human. As to the method:
T47D cells and MRC-5 cells were maintained and harvested as described in Example 90. An aliquot of 45 μl of cells was added to each well of a 96-well microtiter plate. To determine the dose response of gambogic acid for inducing caspase activity, 5 μl of 20 μM gambogic acid in RPMI media was added to wells in triplicates. Two-fold serial dilutions were made for the lower concentrations. After incubation for 2 h, the samples were removed from the 5% CO2-95% humidity incubator and caspase activity was determined by addition of a fluorogenic substrate as described in Example 90.

Series [5] has as its system poly(ADP)ribose polymerase (PARP) cleavage, HL-60 cells. Description: PARP cleavage western blot, HL-60 cells. Type of series: cell-based, human. The conditions noted are these: 2.5 μM, 2 h (FIG. 5B). As to the method:
(§8) Cleavage of the enzyme poly(ADP)ribose polymerase (PARP) by caspase-3 and related proteases is considered to be one of the molecular hallmarks of caspase-mediated apoptosis. Therefore, the ability of gambogic acid to induce PARP cleavage in four different human tumor cell lines (Jurkat cells, HL-60 cells, T47D cells and PC3 cells) was determined.
(§9) Cells were cultured in complete growth medium containing 10% FBS and treated with gambogic acid at concentrations of 2.5 μM or 5 μM for 2 to 4 h. Control cultures were treated with a drug vehicle (DMSO), or the well-characterized apoptosis inducer, staurosporine. At the end of the apoptosis induction period, the cells were harvested, washed once with PBS, quick-frozen on dry ice, and stored at −80° C. The cells were then lysed in a standard immunoblotting lysis buffer and samples of the lysates were electrophoresed on 4% to 20% gradient polyacrylamide gels. The proteins in the gels were then transferred to PVDF membranes and probed with a commercially-available rabbit polyclonal antibody to PARP.
(In general: Immunoblotting shows a protein as a band on a membrane.)

The subject of series [6] is poly(ADP)ribose polymerase (PARP) cleavage, T47D cells. Description: PARP cleavage western blot, T47D cells. The series is classed as cell-based, human. The procedure:
as §8, §9

Series [7] has as its system poly(ADP)ribose polymerase (PARP) cleavage, PC3 cells. As to the kind of experiment: PARP cleavage western blot, PC3 cells. The series is classed as cell-based, human. The conditions noted are these: 5 μM, 4 h (FIG. 5D). The procedure:
as §8, §9

The subject of the next series is HEL cells. The settings on record: reported by Asano et al., Phytochemistry 41:815-820 (1996); cited from earlier work.
Another series has as its system KB-V1 cell line. The settings on record: reported by Lin et al., Magn. Reson. Chem. 31:340-347 (1993); cited from earlier work.
Where [8] appears, read: read-out: GI50 (dose for 50% inhibition of cell proliferation).
Where [9] appears, read: read-out: LC50 (dose for 50% cell death).

Structures are written as SMILES.

On to `CC(C)=CCC[C@]1(C)C=Cc2c(O)c3c(c(CC=C(C)C)c2O1)O[C@]12C(=C[C@@H]4C[C@H]1C(C)(C)O[C@@]2(C/C=C(/C)C(=O)O)C4=O)C3=O` [Example 1, Gambogic Acid], for which the GI50 with ZR-75-1 cells turned out to be 0.4 µM; in [1], 0.8 µM; with HL-60 cells (setting [8]), 0.5 µM; in the series on MRC-5 cells (setting [8]), 0.4 µM. The CC50 in the series on HL-60 cells (setting [9]) is 0.7 µM; with MRC-5 cells (setting [9]), 0.5 µM. Besides, the “Inhibition of caspase activity by Inhibitor” value in series [2] (10 μM gambogic acid with 10 μM caspase inhibitor cbz-Val-Asp-fmk) is recorded as “+”; in series [3] (SHP-77, 10 μM gambogic acid with 10 μM caspase inhibitor cbz-Val-Asp-fmk), “+”. Also, the Caspase activity entry in [2] (10 μM gambogic acid, up to 24 h) is given as “+ (Gambogic acid induced caspase activity in a ratio of greater than 2.5 (+) above untreated cell levels)”; in [3] (SHP-77, 10 μM gambogic acid, up to 24 h), “+ (Gambogic acid induced caspase activity in a ratio of greater than 2.5 (+) above untreated cell levels)”. Further, the “Nuclear fragmentation (Syto16 nuclear staining)” value in the series with T47D breast cancer cells was “condensed and fragmented nuclei in a large population of the cells”. Besides, in series [4], the “Sensitivity of T47D to induction of caspase activity relative to MRC-5 (dose response)” value is listed as “more sensitive to induction of caspase activity than a normal fibroblast cell line MRC-5”. Further, the PARP cleavage result is “almost complete PARP cleavage” in series [5]; “almost complete PARP cleavage” in series [6] (2.5 μM and 5 μM, 4 h (FIG. 5C)); “moderate induction of PARP cleavage” in [6] (2.5 μM, 2 h (FIG. 5C)); “almost complete PARP cleavage” in series [6] (5 μM, 2 h (FIG. 5C)); “a moderate amount of PARP cleavage product” in [7]. In the series on HEL cells, the “Cytotoxicity to HEL cells” value is “cytotoxic”. In the series with KB-V1 cell line, the “Cytotoxicity against KB-V1 cell line” value was “cytotoxic”.
